Holding throughout (test): NCI tumour cell line growth inhibition, 48 h
Experiment [1] has as its system A549 NSCLC.
The subject of experiment [2] is COLO 205 colon.
For experiment [3], the system named is EKVX NSCLC.
Experiment [4] has as its system MCF7 breast.
The test system of experiment [5] is MOLT-4 leukemia.
Experiment [6] deals with NCI/ADR-RES ovarian.
Experiment [7] deals with SK-OV-3 ovarian.
The subject of experiment [8] is UACC-62 melanoma.
Experiment [9] concerns UO-31 renal.
Experiment [10] deals with MALME-3M melanoma.

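Cultured in 96-well plates, cells were exposed to test compound for 48 hours across five concentrations. Here, GI50 denotes the concentration required for 50% inhibition of growth. TGI marks complete inhibition of growth.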

As for `COc1cc(C2NC(=O)c3ccccc3N2)ccc1OCCCCCOc1c(OC)cc(C2=NOC(c3cc(OC)c(OC)c(OC)c3)C2)cc1OC` (stereo unspecified), the GI50 was 2.25 µM in experiment [1]; greater than 59 µM in [2]; 0.365 µM in experiment [3]; 0.356 µM in [4]; 0.57 µM in experiment [5]; 12.7 µM in experiment [6]. Also, the GI50 in experiment [7] is 31.1 µM; in [8], 0.506 µM; in experiment [9] it was 15.1 µM. Also, the TGI in experiment [1] is 97.7 µM; in [2], greater than 100 µM; in experiment [3], greater than 100 µM; in experiment [4] it was greater than 100 µM; in experiment [5], greater than 100 µM; in experiment [6], greater than 51.8 µM. The TGI in experiment [7], in experiment [8] and in [9] was greater than 100 µM each time.
As for `C=C1C(=O)O[C@H]2[C@H]1CC/C(Cn1cc(-c3ccc(OC)cc3)nn1)=C\CC[C@@]1(C)O[C@@H]21`, the GI50 is 10.9 µM in [1]; 0.504 µM in experiment [2]; 2.47 µM in experiment [3]; 1.67 µM in experiment [10]; 1.13 µM in experiment [5]; 3.08 µM in experiment [6]. The GI50 in experiment [7] was 16.3 µM; in experiment [8], 1.35 µM; in experiment [9], 1.27 µM. Further, the TGI turned out to be 24.4 µM in experiment [1]; 1.95 µM in [2]; 10.3 µM in experiment [3]; 3.4 µM in experiment [10]; 3.66 µM in [5]; 12.4 µM in experiment [6]. For the same molecule, the values for the TGI in [7], in experiment [8] and in experiment [9] were 29.9 µM, 2.99 µM and 2.64 µM, respectively.
For `COc1ccc(/C=C/c2nccc3ccccc23)cc1OC`, the TGI in [1], in [2], in [3], in [10], in experiment [4] and in experiment [5] was greater than 10 µM in each case. The TGI in [6], in experiment [7] and in experiment [8] was greater than 10 µM each time.
Consider `CCC(C)c1c(Cl)nc(Cl)nc1Cl` (stereo unspecified), for which the TGI in experiment [3] was 48.8 µM; in [10] it was greater than 100 µM; in experiment [4] it was 22 µM; in experiment [5], greater than 100 µM; in experiment [6], greater than 100 µM; in experiment [7], greater than 100 µM. Further, the TGI came out at 52.8 µM in experiment [8] and 33.4 µM in experiment [9].
With `CC(C)(CC(=O)Nc1ccccc1)C(=O)O`, the TGI in experiment [1], in [2], in [3], in experiment [4], in experiment [5] and in experiment [6] was greater than 100 µM throughout. Also, the TGI in [7], in experiment [8] and in experiment [9] was greater than 100 µM each time.
Regarding `COc1ccc(-c2cc(=O)c3ccc(O)cc3o2)cc1OC`, the TGI in experiment [1], in experiment [2], in experiment [3], in experiment [10], in experiment [4] and in experiment [5] was greater than 100 µM throughout. The TGI in experiment [6], in [7] and in experiment [8] was greater than 100 µM in each case.
`Cc1ccc2c(c1)[n+]([O-])c(N)n[n+]2[O-]`: the TGI in experiment [1], in experiment [2], in experiment [3], in experiment [4], in experiment [5] and in [6] was greater than 100 µM throughout. Moreover, the TGI in experiment [7] and in experiment [9] was greater than 100 µM throughout.
As for `CN1CCN(C(=O)OCc2nc3c(N4CCOCC4)nc(Cl)nc3n2C)CC1`, the GI50 in experiment [1] is 1.81 µM; in [2], 1.44 µM; in experiment [3], 1.59 µM; in [10], 1.5 µM; in experiment [5], 1.19 µM; in experiment [6] it was 2.46 µM. In addition, the GI50 in [7] is 6.15 µM; in experiment [8], 1.38 µM; in experiment [9] it was 1.07 µM. In addition, the TGI in experiment [1] was determined as 5.25 µM; in experiment [2], 4.1 µM; in experiment [3] it was 2.98 µM; in experiment [10] it was 2.87 µM; in [5], 4.69 µM; in experiment [6], 9.59 µM. In addition, the values for the TGI in [7], in experiment [8] and in experiment [9] were 18.8 µM, 2.8 µM and 2.29 µM, respectively.
Take `NC(CCC(=O)NC(CSSCCCCS(=O)O)C(=O)NCC(=O)O)C(=O)O` (stereo unspecified): the TGI in [1], in experiment [2], in experiment [3], in experiment [10], in experiment [5] and in experiment [7] was greater than 100 µM each time. For the same molecule, the TGI in experiment [8] and in experiment [9] was greater than 100 µM in each case.
As for `CSC(C1c2ccccc2N(c2ccc(C)cc2)C2=NC(=O)N(C)C(=O)C21Cl)S(=O)(=O)c1ccc(C)cc1` (stereo unspecified), the TGI in [1] is greater than 100 µM; in [2], 36.6 µM; in [3], greater than 100 µM; in experiment [10], 32.6 µM; in experiment [5] it was 32 µM; in [7], 87.6 µM. Moreover, the TGI in experiment [8] came out at 52 µM; in [9], 69.9 µM.
Consider `COc1ccc(/C(COc2c(-c3ccccc3)oc3ccccc3c2=O)=N\O)cc1`, for which the GI50 is 23.2 µM in [1]; 12 µM in [2]; 14.2 µM in experiment [3]; 10.8 µM in experiment [4]; 22.9 µM in experiment [5]; 11.4 µM in experiment [6]. In addition, the values for the GI50 in experiment [7], in [8] and in experiment [9] were 16.9 µM, 12.7 µM and 41.4 µM, respectively. Also, the TGI in experiment [1] is greater than 50 µM; in [2], 30.9 µM; in [3], greater than 50 µM; in [4], 29.5 µM; in [5], greater than 50 µM; in experiment [6], 39.6 µM. Moreover, the TGI in experiment [7] was greater than 50 µM; in [8] it was 43.5 µM; in [9] it was greater than 50 µM.

Values taken from PubChem BioAssay (NCI).
